According to patent publication US8067042B1 (Mutual Pharmaceutical Company, Inc., priority 2007, dated 2011):
Values joined by “and” are separate entries in the source; they are usually repeats but may differ in a detail not shown here. Equal values may be shown once. Read-outs that look alike come from different tables or passages of the source. Marks after values point to notes of the source that are not given here.

Key:
[1] = target: Human CYP3A4 + P450 Reductase + Cytochrome b5 SUPERSOMES (Homo sapiens, UniProt P08684)
Sequence of Human CYP3A4 + P450 Reductase + Cytochrome b5 SUPERSOMES (P08684 whole entry, canonical isoform): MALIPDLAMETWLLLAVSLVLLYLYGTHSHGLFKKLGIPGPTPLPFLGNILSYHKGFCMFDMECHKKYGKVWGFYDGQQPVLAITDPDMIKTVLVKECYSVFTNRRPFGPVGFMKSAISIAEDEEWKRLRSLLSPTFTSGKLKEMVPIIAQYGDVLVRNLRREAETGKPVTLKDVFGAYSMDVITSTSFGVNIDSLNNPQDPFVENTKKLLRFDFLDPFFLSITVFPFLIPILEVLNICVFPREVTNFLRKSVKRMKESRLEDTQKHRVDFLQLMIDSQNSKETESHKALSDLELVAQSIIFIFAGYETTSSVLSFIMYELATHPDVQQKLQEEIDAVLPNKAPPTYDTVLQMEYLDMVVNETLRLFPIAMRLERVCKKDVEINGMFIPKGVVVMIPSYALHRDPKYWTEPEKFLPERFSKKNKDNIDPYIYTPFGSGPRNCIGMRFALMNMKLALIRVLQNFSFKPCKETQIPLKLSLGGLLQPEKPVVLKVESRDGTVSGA
Protocol: (§1) In this study, individual CYP isoforms expressed from human cDNA and P450 reductase cDNA were used (BD SUPERSOMES™ Enzymes, BD Biosciences Discovery Labware, Woburn, Mass.). SUPERSOMES™ are microsomes from baculovirus-infected insect cells containing singly expressed recombinant human CYP enzymes.
(§2) After a 5-minute preincubation, an appropriate amount of the appropriate buffer was added to the reaction mixtures to make the final volume of 0.5 mL. The incubations were continued for 60 minutes.
(§3) All incubation reactions were terminated by adding 0.5 mL methanol, and the samples were transferred to cryovials and stored at −70±10° C. until analysis.

[2] = target: Human CYP2E1 + P450 Reductase + Cytochrome b5 SUPERSOMES (Homo sapiens, UniProt P05181)
Sequence of Human CYP2E1 + P450 Reductase + Cytochrome b5 SUPERSOMES (P05181 whole entry): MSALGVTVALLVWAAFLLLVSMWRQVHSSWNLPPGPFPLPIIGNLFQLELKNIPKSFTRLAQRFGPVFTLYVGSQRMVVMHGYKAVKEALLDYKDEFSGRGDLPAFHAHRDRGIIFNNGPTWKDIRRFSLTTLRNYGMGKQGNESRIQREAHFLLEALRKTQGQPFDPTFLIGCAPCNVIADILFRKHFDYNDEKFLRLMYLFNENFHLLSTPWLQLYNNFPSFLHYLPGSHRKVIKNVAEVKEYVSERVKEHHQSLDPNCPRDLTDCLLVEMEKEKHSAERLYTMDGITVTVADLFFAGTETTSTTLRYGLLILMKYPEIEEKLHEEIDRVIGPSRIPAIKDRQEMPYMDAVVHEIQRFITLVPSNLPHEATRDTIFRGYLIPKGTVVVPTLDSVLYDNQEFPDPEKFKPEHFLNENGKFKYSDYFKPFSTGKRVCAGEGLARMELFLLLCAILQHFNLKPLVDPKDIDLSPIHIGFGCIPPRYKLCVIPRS
Protocol: as §1, §2, §3

CYP3A4 = CYP3A4 (Homo sapiens, UniProt P08684)
Sequence of CYP3A4 (P08684 whole entry): as the sequence (P08684 whole entry, canonical isoform) above
Protocol: The stock solutions were added to incubation mixtures to obtain the final concentrations of 5 and 50 μM, each containing 1% acetonitrile.
After a 5 minute preincubation, nicotinamide adenine dinucleotide phosphate (NADPH) regenerating system (NRS; 1.7 mg/mL β-NADP, 7.8 mg/mL glucose-6-phosphate, and 6 units/mL glucose-6-phosphate dehydrogenase in 2% sodium bicarbonate solution) was added to initiate the reaction. The final incubation volume was 0.5 mL. Incubations were continued for 60 minutes.
All incubations were conducted at 37±1° C. in a shaking water bath. All incubations were carried out in triplicates.
After a 5-minute preincubation, 2% sodium bicarbonate solution was added to the incubation mixtures. The final incubation volume was 0.5 mL. Incubations were continued for 60 minutes.
Incubation reactions, including the matrix controls and metabolic negative controls, were terminated by adding 0.5 mL methanol.
The samples were analyzed on a Supelcosil LC-18 column (3μ, 120 Å, 3.0×100 mm).

CYP2D6 [3] = target: T1, CYP2D6 (Homo sapiens, UniProt P10635); assay type: in vitro ADME; conditions: 50 μM megestrol acetate, microsomes
T1 sequence (P10635 whole entry): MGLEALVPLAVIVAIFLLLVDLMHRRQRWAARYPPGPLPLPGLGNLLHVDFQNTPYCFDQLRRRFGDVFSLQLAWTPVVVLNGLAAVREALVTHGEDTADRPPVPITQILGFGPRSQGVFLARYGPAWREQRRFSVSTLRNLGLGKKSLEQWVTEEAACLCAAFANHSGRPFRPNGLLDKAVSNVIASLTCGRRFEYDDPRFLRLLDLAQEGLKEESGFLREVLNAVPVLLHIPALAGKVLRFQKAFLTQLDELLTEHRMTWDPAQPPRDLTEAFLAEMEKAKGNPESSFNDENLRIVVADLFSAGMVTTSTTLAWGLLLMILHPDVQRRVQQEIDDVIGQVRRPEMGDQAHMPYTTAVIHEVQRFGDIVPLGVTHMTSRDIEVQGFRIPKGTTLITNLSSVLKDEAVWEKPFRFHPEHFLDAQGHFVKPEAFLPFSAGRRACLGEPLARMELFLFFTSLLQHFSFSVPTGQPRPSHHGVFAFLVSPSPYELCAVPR

CYP2C8 = assay type: in vitro ADME; conditions: 50 μM megestrol acetate, microsomes, quercetin
CYP2B6 = target: T2, CYP2B6 (Homo sapiens, UniProt P20813); conditions: 50 μM (with 1% methanol)
T2 sequence (P20813 1-491): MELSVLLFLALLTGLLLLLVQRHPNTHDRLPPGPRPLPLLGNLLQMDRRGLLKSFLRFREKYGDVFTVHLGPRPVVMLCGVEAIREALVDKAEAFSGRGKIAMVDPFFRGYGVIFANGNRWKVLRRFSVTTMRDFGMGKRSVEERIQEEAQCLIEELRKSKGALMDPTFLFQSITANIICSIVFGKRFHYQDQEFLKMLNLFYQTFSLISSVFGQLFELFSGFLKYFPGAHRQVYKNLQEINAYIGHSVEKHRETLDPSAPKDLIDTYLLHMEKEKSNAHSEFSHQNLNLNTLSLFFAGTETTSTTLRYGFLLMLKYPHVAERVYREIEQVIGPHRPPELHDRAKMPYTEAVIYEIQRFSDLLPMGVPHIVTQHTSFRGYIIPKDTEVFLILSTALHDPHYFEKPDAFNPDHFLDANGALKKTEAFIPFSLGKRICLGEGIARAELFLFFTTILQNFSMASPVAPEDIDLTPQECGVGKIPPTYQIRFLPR
Protocol: All incubations were carried out in triplicates.

CYP2D6 [4] = target: T1, CYP2D6; assay type: in vitro ADME; set-up: purchased BD Biosciences Discovery Labware, Woburn, Mass; host or cells: baculovirus-infected insect cells; conditions: 50 μM megestrol acetate, 20 pmol CYP2D6
[5] = 5 μM, 5 pmol enzyme, listed as megestrol acetate
[6] = 5 μM, 20 pmol enzyme, listed as megestrol acetate
[7] = 50 μM, 5 pmol enzyme, listed as megestrol acetate
[8] = 50 μM, 20 pmol enzyme, listed as megestrol acetate
[9] = human, microsomes, 60 min, pH 7.4

In the case of `CC(=O)O[C@]1(C(C)=O)CC[C@H]2[C@@H]3C=C(C)C4=CC(=O)CC[C@]4(C)[C@H]3CC[C@@]21C` [Megestrol Acetate, 17 α-acetyloxy-6-methylpregna-4,6-diene-3,20-dione], the “Individual Raw Data Observed” value ([1]; 5 μM, 5 pmol enzyme) is reported as 0.8008 µM and 0.7908 µM and 0.8634 µM, the “Percent of Parent Disappearance Individual” value ([1]; 5 μM, 5 pmol enzyme) is reported as 58.1% and 58.6% and 54.8% and the “Percent of Parent Disappearance Mean ± SD” value ([1]; 5 μM, 5 pmol enzyme) is reported as 57.2 ± 02.06%. For the same compound, the “Percent of Parent Disappearance Mean ± SD” value [1, 5] was 57.2±2.06%, the “Individual Raw Data Observed” value ([1]; 5 μM, 20 pmol enzyme) was 0.00000 ^a μM and the “Percent of Parent Disappearance Individual” value ([1]; 5 μM, 20 pmol enzyme) was over 93.6%. The “Percent of Parent Disappearance Mean ± SD” value ([1]; 5 μM, 20 pmol enzyme) was over 93.6 ± 0.000%, the “Percent of Parent Disappearance Mean ± SD” value [1, 6] was over 93.6±0.000% and the “Individual Raw Data Observed” value ([1]; 50 μM, 5 pmol enzyme) was 14.3 µM and 14.66 µM and 14.98 µM. The “Percent of Parent Disappearance Individual” value ([1]; 50 μM, 5 pmol enzyme) was 20.9% and 18.9% and 17.1%, the “Percent of Parent Disappearance Mean ± SD” value ([1]; 50 μM, 5 pmol enzyme) was 18.9 ± 1.90% and the “Percent of Parent Disappearance Mean ± SD” value [1, 7] was 18.9±1.90%. For the same compound, the “Individual Raw Data Observed” value ([1]; 50 μM, 20 pmol enzyme) was 5.336 µM and 5.631 µM and 6.813 µM, the “Percent of Parent Disappearance Individual” value ([1]; 50 μM, 20 pmol enzyme) was 73.5% and 72.0% and 66.1% and the “Percent of Parent Disappearance Mean ± SD” value ([1]; 50 μM, 20 pmol enzyme) was 70.5 ± 3.89%. The “Percent of Parent Disappearance Mean ± SD” value [1, 8] was 70.5±3.89%, the “Individual Raw Data Observed” value ([2]; 5 μM, 5 pmol enzyme) was 2.008 µM and 2.126 µM and 2.034 µM and the “Percent of Parent Disappearance Individual” value ([2]; 5 μM, 5 pmol enzyme) was 20.4% and 15.8% and 19.4%. For the same compound, the “Percent of Parent Disappearance Mean ± SD” value ([2]; 5 μM, 5 pmol enzyme) was 18.5 ± 02.46%, the “Percent of Parent Disappearance Mean ± SD” value [2, 5] was 18.5±2.46% and the “Individual Raw Data Observed” value ([2]; 5 μM, 20 pmol enzyme) was 1.473 µM and 1.491 µM and 1.693 µM. The “Percent of Parent Disappearance Individual” value ([2]; 5 μM, 20 pmol enzyme) was −1.62% and −2.86% and −16.8%, the “Percent of Parent Disappearance Mean ± SD” value ([2]; 5 μM, 20 pmol enzyme) was −7.09 ± 8.42% and the “Percent of Parent Disappearance Mean ± SD” value [2, 6] was 7.09±8.42%. The “Individual Raw Data Observed” value ([2]; 50 μM, 5 pmol enzyme) was 21.97 µM and 17.04 µM and 17.99 µM, the “Percent of Parent Disappearance Mean ± SD” value ([2]; 50 μM, 5 pmol enzyme) was −10.5 ± 15.2% and the “Percent of Parent Disappearance Mean ± SD” value [2, 7] was 10.5±15.2%. The “Individual Raw Data Observed” value ([2]; 50 μM, 20 pmol enzyme) was 21.04 µM and 21.41 µM and 21.74 µM, the “Percent of Parent Disappearance Individual” value ([2]; 50 μM, 20 pmol enzyme) was −1.09% and −2.83% and −4.46% and the “Percent of Parent Disappearance Mean ± SD” value ([2]; 50 μM, 20 pmol enzyme) was −2.79 ± 1.69%. The “Percent of Parent Disappearance Mean ± SD” value [2, 8] was 2.79±1.69%, the “percent metabolized in presence vs absence of inhibitor (unpaired two-tailed t-test)” value (CYP2E1) was “less than that of the percentage of megestrol acetate metabolized in the absence of the inhibitor” and the “metabolized in pooled human liver microsomes” value (CYP2E1; [9]) was over 20%. For the same compound, the “percent metabolized in presence vs absence of inhibitor (unpaired two-tailed t-test)” value (CYP3A4) was “less than that of the percentage of megestrol acetate metabolized in the absence of the inhibitor”, the “metabolized in pooled human liver microsomes” value (CYP3A4; [9]) was over 20% and the “difference in metabolism in the presence or absence of the inhibitor (LC/MS)” value (CYP2D6 [3]) was “no significant difference in metabolism”. For the same compound, the “difference in metabolism in the presence or absence of the inhibitor (LC/MS)” value (CYP2C8) was “a significant difference in metabolism”, the “Percent of Parent Disappearance Individual” value (CYP2B6) was 54.8% and the metabolites formed (CYP2D6 [4]) was “no metabolites were detected”. The “percent metabolized in presence vs absence of inhibitor (unpaired two-tailed t-test)” value (CYP2A6) was “less than that of the percentage of megestrol acetate metabolized in the absence of the inhibitor” and the “metabolized in pooled human liver microsomes” value (CYP2A6; [9]) was over 20%.
